Assay results: patent US20260248969A1, “PEPTIDE MULTIMER PRODUCTS AND METHODS” (REGENTS OF THE UNIVERSITY OF MICHIGAN, priority 2023, published 2026)
Each block holds one molecule with its values, some of them ahead of it. Residues, ends and D or L forms follow the SMILES beside them. No end group written: not given here. *: point of attachment. IRDye800CW = CC1(C)C(/C=C/C2=C(Oc3ccc(S(=O)(=O)O)cc3)C(=C/C=C3/N(CCCCS(=O)(=O)O)c4ccc(S(=O)(=O)O)cc4C3(C)C)/CCC2)=[N+](CCCCCC(=O)*)c2ccc(S(=O)(=O)[O-])cc21

Columns and labels:
CD44 [1] = assay: Apparent dissociation constant by flow cytometry on SK-Hep1 cells; assay type: binding, human; conditions: 0-200 nM, R^2=0.99
Procedure: The equilibrium dissociation constant kd=1/ka was calculated by performing using a least square fit of the data to the non-linear equation I=(I0+Imaxka[X])/(I0+ka[X]). I0 and Imax are the initial and maximum fluorescence intensities, corresponding to no peptide and at saturation, respectively, and [X] represents the concentration of the bound peptide. Results are the mean values from 3 independent experiments.
The apparent dissociation constant (kd) of the IRDye800-labeled WKG* peptide monomer was measured to provide an estimate of binding affinity. The IRDye800-labeled monomer was incubated with human HCC cells over a range of concentrations. Fluorescence intensities were measured with flow cytometry. WKG*-IRDye800 was incubated with SK-Hep1 cells over concentrations ranging from 0-200 nM, and the fluorescence intensity was measured with flow cytometry.

[2] = mouse, in vivo, iv
Procedure: C) Serum stability of WKG*-IRDye800 (200 μM in 200 μL of PBS) in mice (n=5) was measured following intravenous injection. Serum was collected at various time points from 0-24 hours post-injection.
The optimized WKG* monomer labeled with IRDye800 was incubated in serum to determine half-life T1/2. Stability in mouse serum over time was measured using analytical RP-HPLC. The relative concentration was calculated from the area-under-the-peak, and the intensities were fit to a first order kinetic model, and the serum half-life T1/2 was determined.

CD44 [3] = assay: Co-localization of peptide monomer and anti-CD44-AF488 binding to SK-Hep1 cells; conditions: SK-Hep1 human HCC cells
Procedure: Specific binding of the optimized IRDye800-labeled […] monomer peptide was substantiated using a co-localization of binding to known antibodies. Human Hep3B, HepG2, and Sk-Hep1 HCC cells that overexpress early-stage HCC targets were used. A Pearson's correlation coefficient ρ was calculated from fluorescence intensities on merged images. Measurements were made from n=10 cells chosen randomly from 3 slides. Data for CD44 is shown in FIG. 4A, and similar data was obtained for GPC3 and EpCAM. As shown in the figure, binding by WKG*-IRDye800 and anti-CD44-AF488 to the surface (arrows) of Sk-Hep1 cells co-localized with a correlation of p=0.81 measured on the merged image.

[4] = tested on: orthotopic HCC PDX tumors; assay: In vivo whole body NIR fluorescence imaging of orthotopic HCC PDX tumors; design: species or system mouse; conditions: P<1×10^−4 by paired t-test
Procedure: (§1) In vivo imaging was performed to assess HCC tumor uptake, biodistribution, and clearance of the optimized multimer. […] The target-to-background (T/B) ratio for the multimer was ~1.8-fold greater than that for monomer and free Gd-DOTA from the same tumor in n=3 animals. The target region was segmented using the Chan-Vese algorithm. The background region was defined by dilating the target region. Clearance of the MR signal occurred after ~4 hours post-injection. Data from whole body NIR fluorescence images collected in vivo from the orthotopic HCC tumor following intravenous injection of the lead candidate EpCAM target and control peptides is shown in FIG. 6C. […] For the differences and variances shown in FIG. 60, the power is >95% to obtain P<0.01 for target versus control using n=8 mice per group.

[5] = tested on: orthotopic HCC PDX tumors; assay: In vivo MR imaging of tumor uptake, orthotopic HCC PDX model; design: species or system mouse; conditions: peak uptake 0.5 hours post-injection, same tumor in n=3 mice
Procedure: as §1
In vivo tumor uptake of the peptide multimer was evaluated in an orthotopic HCC PDX mouse model using T1-weighted MR images. The Gd-DOTA labeled peptide multimer and peptide monomers specific for GPC3, CD44, and EpCAM were intravenously injected at a concentration of 300 μM in 200 μL of PBS via the tail vein of mice bearing orthotopic PDX tumors, FIG. 13A-E. Gd-DOTA (300 μM in 200 μL PBS) was also intravenously injected as a control. T1-weighted MR images were acquired using a 7T horizontal bore small animal magnet (SGRAD 205/120/HD/S, Agilent Technologies). […]

[6] = molecular target: T1, CD44 (cluster of differentiation 44) (human, UniProt P16070 21-742); assay: quantified fluorescence on CCA-156 cells, 5 uM; multimer signal comes from cells that carry GPC3, CD44 and EpCAM
T1 construct: whole, on cells; Endogenous target on human HCC cells and tissues; no recombinant protein was used
T1 sequence (P16070 21-742): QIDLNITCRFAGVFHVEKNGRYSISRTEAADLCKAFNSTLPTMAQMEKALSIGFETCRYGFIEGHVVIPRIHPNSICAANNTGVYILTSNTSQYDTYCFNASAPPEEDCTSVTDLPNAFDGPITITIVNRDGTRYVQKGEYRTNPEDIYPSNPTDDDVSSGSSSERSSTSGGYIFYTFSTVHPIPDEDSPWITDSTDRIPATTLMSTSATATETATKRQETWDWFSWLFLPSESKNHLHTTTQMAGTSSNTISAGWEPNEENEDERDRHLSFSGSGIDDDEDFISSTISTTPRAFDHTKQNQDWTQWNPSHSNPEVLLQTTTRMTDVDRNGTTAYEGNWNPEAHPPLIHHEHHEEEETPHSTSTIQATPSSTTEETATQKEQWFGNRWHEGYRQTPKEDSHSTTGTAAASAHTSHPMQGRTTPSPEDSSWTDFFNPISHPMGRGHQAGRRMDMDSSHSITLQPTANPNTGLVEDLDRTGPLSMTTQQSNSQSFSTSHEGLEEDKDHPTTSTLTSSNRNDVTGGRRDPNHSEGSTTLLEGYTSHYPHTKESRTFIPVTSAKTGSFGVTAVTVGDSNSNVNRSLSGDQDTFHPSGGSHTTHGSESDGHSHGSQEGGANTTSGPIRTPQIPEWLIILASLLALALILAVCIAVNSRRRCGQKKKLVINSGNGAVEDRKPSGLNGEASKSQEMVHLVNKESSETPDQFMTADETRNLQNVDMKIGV
Procedure: (§2) Approximately 10³ CCA-156 cells were grown on the cover glass in a 24-well plate to ~90% confluence. The cells were washed with PBS twice and incubated with 5 μM of either Cy5.5-labeled peptide multimer or peptide monomer for 5 min on ice. The cells were then washed with PBS for 3X, fixed with 4% paraformaldehyde (PFA) in PBS for 15 min, washed with PBS for twice, then mounted on glass slides with ProLong Gold reagent containing DAPI (Invitrogen).

[7] = molecular target: T2, Epithelial cell adhesion molecule (EpCAM) (human, UniProt P16422 24-314); assay: as above
T2 construct: whole, on cells; Endogenous target on human HCC cells and tissues
T2 sequence (looked up): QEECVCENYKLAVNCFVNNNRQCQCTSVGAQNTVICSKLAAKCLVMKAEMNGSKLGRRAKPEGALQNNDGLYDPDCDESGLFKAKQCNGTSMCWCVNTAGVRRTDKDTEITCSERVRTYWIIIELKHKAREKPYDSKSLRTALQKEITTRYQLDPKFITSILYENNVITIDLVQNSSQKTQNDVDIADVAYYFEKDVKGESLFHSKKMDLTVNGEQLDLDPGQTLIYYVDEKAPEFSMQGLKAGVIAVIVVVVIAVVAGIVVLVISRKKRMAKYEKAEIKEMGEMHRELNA
Procedure: as §2

Glypican-3 (GPC3) = molecular target: T3, Glypican-3 (GPC3) (human, UniProt P51654 25-554); assay: as above
T3 construct: whole, on cells; Endogenous target on human HCC cells and tissues
T3 sequence (P51654 25-554 limits assumed): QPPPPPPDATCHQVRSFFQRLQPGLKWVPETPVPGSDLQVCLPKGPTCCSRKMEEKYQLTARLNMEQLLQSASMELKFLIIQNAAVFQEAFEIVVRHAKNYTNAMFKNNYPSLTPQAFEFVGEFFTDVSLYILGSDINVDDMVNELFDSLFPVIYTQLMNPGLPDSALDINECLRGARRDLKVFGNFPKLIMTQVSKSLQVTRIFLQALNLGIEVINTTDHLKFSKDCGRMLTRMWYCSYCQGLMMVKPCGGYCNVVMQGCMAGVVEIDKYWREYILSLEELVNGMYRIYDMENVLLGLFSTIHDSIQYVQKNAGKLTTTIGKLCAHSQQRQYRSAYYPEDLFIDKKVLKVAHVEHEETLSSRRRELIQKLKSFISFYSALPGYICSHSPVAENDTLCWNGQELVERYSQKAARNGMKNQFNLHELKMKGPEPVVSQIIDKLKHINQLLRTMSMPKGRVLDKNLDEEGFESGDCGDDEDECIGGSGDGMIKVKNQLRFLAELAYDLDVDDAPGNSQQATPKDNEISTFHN
Procedure: as §2

[8] = molecular target: T2, Epithelial cell adhesion molecule …; assay: fluorescence microscopy, 5 uM on CCA-156 cells
Procedure: as §2

[9] = molecular target: T1, CD44 (cluster of differentiation 44); assay: flow cytometry, labeled peptide 0-200 nM on SK-Hep1 human HCC cells; apparent dissociation constant
Procedure: A) WKG*-IRDye800 and anti-CD44-AF488 bind intensely to the surface (arrows) of SK-Hep1 human HCC cells. A Pearson's correlation coefficient of r=0.81 was measured from the merged image. […] B) An apparent dissociation constant of kd=43 nM, R²=0.99, was measured for WKG*-IRDye800 binding to SK-Hep1 cells. The equilibrium dissociation constant kd=1/kₐ was calculated by performing using a least square fit of the data to the non-linear equation […]. I₀ and Iₘₐₓ are the initial and maximum fluorescence intensities, corresponding to no peptide and at saturation, respectively, and [X] represents the concentration of the bound peptide. Results are the mean values from 3 independent experiments. C) Serum stability of WKG*-IRDye800 (200 μM in 200 μL of PBS) in mice (n=5) was measured following intravenous injection. […] The fluorescence intensity I(t) was measured and fit to a first-order kinetics model I(t)=Iₒ+A×exp(−Bt), and a serum half-life of T_{1/2}=5.1 hours was calculated.
The apparent dissociation constant (kd) of the IRDye800-labeled WKG* peptide monomer was measured to provide an estimate of binding affinity. […] Fluorescence intensities were measured with flow cytometry. WKG*-IRDye800 was incubated with SK-Hep1 cells over concentrations ranging from 0-200 nM, and the fluorescence intensity was measured with flow cytometry. […]

fold increase of fluorescence intensity versus the CD44 monomer WKG*-Cy5.5 [6]: 1.84 fold | fold increase of fluorescence intensity versus the EpCAM monomer HPD*-Cy5.5 [7]: 2 fold | fold increase of fluorescence intensity versus the GPC3 monomer ALL*-Cy5.5 (Glypican-3 (GPC3)): 5.48 fold
B1: Cy5.5-labeled peptide multimer (ALL*, WKG* and HPD* on a tri-lysine linker) (designed binder)
peptide 1: ALLANHEELFQT
peptide 2: WKGWSYLWTQQA
peptide 3: HPDMFTRTHSHN
modifications: also: each peptide joined through PEG3 extension to a tri-lysine linker, Cy5.5 label, site not given here
notes: also called Cy5.5-labeled multimer; not shown: The branched tri-lysine linker with PEG3 extensions and the Cy5.5 label

binding result [8]: binds
Molecule: HPDMFTRTHSHN (also: Cy5.5 label, site and linker not given here) [HPD*-Cy5.5 (Cy5.5-labeled EpCAM peptide monomer, HPDMFTRTHSHN)]

Kd [9]: 43 nM
B2: WKG*-IRDye800 (IRDye800-labeled WKG* peptide monomer, WKGWSYLWTQQA) (peptide)
peptide: WKGWSYLWTQQA
modifications: also: IRDye800 label, site not given here
notes: also called IRDye800-labeled WKD* monomer peptide

More lines, now with the values behind:

Molecule: CC(C)C[C@H](NC(=O)[C@H](Cc1ccc(O)cc1)NC(=O)[C@H](CO)NC(=O)[C@H](Cc1c[nH]c2ccccc12)NC(=O)CNC(=O)[C@H](CCCCN)NC(=O)[C@@H](N)Cc1c[nH]c2ccccc12)C(=O)N[C@@H](Cc1c[nH]c2ccccc12)C(=O)N[C@H](C(=O)N[C@@H](CCC(N)=O)C(=O)N[C@@H](CCC(N)=O)C(=O)N[C@@H](C)C(=O)NCC(=O)NCC(=O)NCC(=O)N[C@@H](CO)C(=O)N[C@@H](CCCCNC(=O)CCCCCN1C(=CC=C2CCCC(C=CC3=[N+](CCCCS(=O)(=O)[O-])c4ccc(S(=O)(=O)O)cc4C3(C)C)=C2Oc2ccc(S(=O)(=O)O)cc2)C(C)(C)c2cc(S(=O)(=O)O)ccc21)C(N)=O)[C@@H](C)O [WKG*-IRDye800] (H-WKGWSYLWTQQAGGGSK(IRDye800CW)-NH2)
Kd (CD44 [1]): 43 nM | half-life [2]: 306 min | binding to the surface of SK-Hep1 cells (CD44 [3]): bind intensely | Pearson's correlation coefficient, peptide and anti-CD44-AF488 (CD44 [3]; merged image): 0.81

Molecule: HPD*-IRDye800: lead EpCAM peptide HPDMFTRTHSHN (SEQ ID NO: 7) labeled with IRDye800 (also: IRDye800 label, site not given here)
NIR fluorescence intensity versus control PFH*-IRDye800 [4]: significantly greater

Molecule: O=C([O-])CN1CCN(CC(=O)[O-])CCN(CC(=O)O)CCN(CC(=O)[O-])CC1.[Gd+3] [free Gd-DOTA, Gd-DOTA]
T/B ratio [5]: 0.99±0.04
